According to the CheMixHub viscosity set:

Test: xn = mol fraction of the nth substance listed

CCC#N + CC(=O)N(C)C
303.15 K, 101.33 kPa
Conditions | viscosity [mPa·s]
x1 = 0.0953 | 0.8264
x1 = 0.2 | 0.7648
x1 = 0.3021 | 0.7092
x1 = 0.3926 | 0.6613
x1 = 0.4985 | 0.6082
x1 = 0.595 | 0.5621
x1 = 0.699 | 0.5131
x1 = 0.795 | 0.4684
x1 = 0.9013 | 0.425

CCOC(=O)OCC + CC(=O)N(C)C
298.15 K, 101 kPa
Conditions | viscosity [mPa·s]
x1 = 0.1371 | 0.925
x1 = 0.2045 | 0.912
x1 = 0.2821 | 0.896
x1 = 0.3603 | 0.881
x1 = 0.4462 | 0.865
x1 = 0.5333 | 0.849
x1 = 0.6265 | 0.831
x1 = 0.7265 | 0.811
x1 = 0.7839 | 0.8
x1 = 0.8296 | 0.79
x1 = 0.8887 | 0.778

CC(C)[C@@H]1CC[C@@H](C)C[C@H]1O + CC(=O)O
100 kPa, x1 = 0.5
Conditions | viscosity [mPa·s]
293.15 K | 11.3
298.15 K | 8.691
303.15 K | 6.904
308.15 K | 5.59
313.15 K | 4.564
318.15 K | 3.843
323.15 K | 3.251

CCC#N + CC(C)(C)O
viscosity [mPa·s], 101 kPa
Conditions | x2 = 0.0744 | x2 = 0.1541 | x2 = 0.2403 | x2 = 0.3272 | x2 = 0.4258 | x2 = 0.5242 | x2 = 0.6146 | x2 = 0.7448 | x2 = 0.8667
298.15 K | 0.4226 | 0.4462 | 0.4934 | 0.5641 | 0.6672 | 0.8059 | 1.024 | 1.526 | 2.346
303.15 K | 0.4138 | 0.4431 | 0.487 | 0.5397 | 0.6276 | 0.739 | 0.9208 | 1.34 | 2.022
308.15 K | 0.3997 | 0.4317 | 0.4754 | 0.5219 | 0.5918 | 0.6821 | 0.8394 | 1.186 | 1.741

Cc1ccccc1C + CC(C)(C)O
308.15 K, 101 kPa
Conditions | viscosity [mPa·s]
x2 = 0.0632 | 0.669
x2 = 0.1246 | 0.679
x2 = 0.204 | 0.677
x2 = 0.2992 | 0.674
x2 = 0.3725 | 0.731
x2 = 0.4258 | 0.777
x2 = 0.4948 | 0.814
x2 = 0.5942 | 0.908
x2 = 0.6887 | 1.028
x2 = 0.7935 | 1.376
x2 = 0.9065 | 1.962

OCCOCCOCCO + CC(C)=O
298.1 K, 101 kPa
Conditions | viscosity [mPa·s]
x1 = 0.2 | 1.038
x1 = 0.4 | 2.75
x1 = 0.5 | 4.48
x1 = 0.6 | 7.168
x1 = 0.8 | 17.04

c1ccc(Oc2ccccc2)cc1 + CC(C)=O
298.15 K, 101 kPa
Conditions | viscosity [mPa·s]
x2 = 0.4843 | 1.339
x2 = 0.7306 | 0.714
x2 = 0.894 | 0.439

Cc1ccccc1C + CC(C)CC(C)(C)C
308.15 K, 101 kPa
Conditions | viscosity [mPa·s]
x2 = 0.1337 | 0.6095
x2 = 0.2492 | 0.5663
x2 = 0.3373 | 0.539
x2 = 0.4352 | 0.5141
x2 = 0.5589 | 0.4878
x2 = 0.6421 | 0.4734
x2 = 0.7365 | 0.4602
x2 = 0.8167 | 0.4525
x2 = 0.917 | 0.4417

Cc1ccccc1C + CC(C)CO
308.15 K, 101 kPa
Conditions | viscosity [mPa·s]
x2 = 0.0649 | 0.669
x2 = 0.1278 | 0.681
x2 = 0.2187 | 0.684
x2 = 0.3335 | 0.77
x2 = 0.4418 | 0.851
x2 = 0.5688 | 0.986
x2 = 0.6291 | 1.064
x2 = 0.7214 | 1.215
x2 = 0.8196 | 1.486
x2 = 0.9023 | 1.835
x2 = 0.9616 | 2.245

CCCCCCCCCCCC + CC(C)O
viscosity [mPa·s], 101.32 kPa
Conditions | 293.15 K | 298.15 K | 303.15 K
x2 = 0.0422 | 1.446 | 1.325 | 1.219
x2 = 0.0957 | 1.424 | 1.306 | 1.191
x2 = 0.2215 | 1.397 | 1.276 | 1.177
x2 = 0.3267 | 1.396 | 1.27 | 1.164
x2 = 0.3943 | 1.407 | 1.28 | 1.167
x2 = 0.4959 | 1.421 | 1.28 | 1.16
x2 = 0.5981 | 1.48 | 1.324 | 1.192
x2 = 0.6957 | 1.566 | 1.392 | 1.243
x2 = 0.8012 | 1.714 | 1.503 | 1.33
x2 = 0.9005 | 1.92 | 1.674 | 1.467
x2 = 0.9502 | 2.101 | 1.815 | 1.58

NC(N)=O + CC(C)O
viscosity [mPa·s], 101 kPa
Conditions | 293.15 K | 298.15 K | 303.15 K | 308.15 K | 313.15 K | 318.15 K | 323.15 K
x1 = 0.02132 | 2.552 | 2.196 | 1.899 | 1.65 | 1.44 | 1.262 | 1.111
x1 = 0.02695 | 2.58 | 2.22 | 1.92 | 1.669 | 1.457 | 1.277 | 1.124
x1 = 0.03401 | 2.6 | 2.243 | 1.944 | 1.693 | 1.481 | 1.301 | 1.147

OCCOCCOCCO + CC(C)O
viscosity [mPa·s], 100 kPa
Conditions | x1 = 0.081 | x1 = 0.1598 | x1 = 0.2401 | x1 = 0.3501 | x1 = 0.44 | x1 = 0.5601 | x1 = 0.6501 | x1 = 0.74 | x1 = 0.8498 | x1 = 0.9398
293.15 K | 4.61 | 6.73 | 9.06 | 12.51 | 15.58 | 20.36 | 24.67 | 29.58 | 36.45 | 43.07
298.15 K | 3.54 | 5.11 | 6.84 | 9.44 | 11.82 | 15.58 | 18.9 | 22.75 | 28.15 | 33.34
303.15 K | 3.21 | 4.58 | 5.98 | 8.15 | 10.07 | 13.01 | 15.62 | 18.54 | 22.62 | 26.49
308.15 K | 2.65 | 3.73 | 4.95 | 6.7 | 8.26 | 10.68 | 12.73 | 15.05 | 18.28 | 21.38
313.15 K | 2.22 | 3.12 | 4.05 | 5.45 | 6.71 | 8.67 | 10.32 | 12.22 | 14.86 | 17.32
318.15 K | 1.97 | 2.79 | 3.63 | 4.83 | 5.88 | 7.5 | 8.82 | 10.32 | 12.42 | 14.36
323.15 K | 1.8 | 2.54 | 3.32 | 4.44 | 5.39 | 6.74 | 7.86 | 9.07 | 10.68 | 12.14
